Source: patent US20230057984A1, “NORMALIZATION OF CULTURE OF CORNEAL ENDOTHELIAL CELLS” (KYOTO PREFECTURAL PUBLIC UNIVERSITY CORPORATION, priority 2011, published 2023)

Test system: Human corneal endothelial cells
Test: Culture of human corneal endothelial cells with SB431542, cell form (Example 5)
Type: cell-based
Conditions: HCEC, base culture medium with SB431542 1 μmol/L; SB431542-free cells transformed in a fibroblastic manner, multi-layered
Experimental: • Cynomolgus monkey corneal endothelial cells (MCEC; source of supply and culturing method): the MCECs were cultured by the improved-type protocol described previously [Koizumi N, et al. (2007) Invest Ophthalmol Vis Sci 48: 4519-4526], [Li W, et al. (2007) Invest Ophthalmol Vis Sci 48: 614-620]. Briefly speaking, eyeballs of cynomolgus monkeys, which were humanely killed for another purpose, were purchased (Nissei Bilis Co., Ltd., Ohtsu, Japan and Keari Co., Ltd., Wakayama, Japan) (the method is described above). The Descemet's membrane including corneal endothelial cells were exfoliated, and the corneal endothelial cells were mechanically exfoliated together with basement membranes, followed by treatment using dispase or collagenase (ROCHE catalog number: 10 103 586 001) and then primary culture. Typically, treatment was performed using 1 mg/mL collagenase A (Roche Applied Science, Penzberg, Germany) at 37° C. for 2 hours. For the culture medium, DMEM (INVITROGEN catalog number 12320) was used with 10% FBS (BIOWEST, catalog number: S1820-500) and 2 ng/ml basic FGF (INVITROGEN, catalog number: 13256-029) added thereto. […] In addition, after the cells were fixed, immunostaining was performed using ZO-1, Na^+/K^+-ATPase as a function-associated marker, followed by observation through a fluorescence microscope. […]

In the case of NC(=O)c1ccc(-c2nc(-c3ccc4c(c3)OCO4)c(-c3ccccn3)[nH]2)cc1 [SB431542], the cell form was “a layer of cells with a small difference in size of a polygonal shape”.
